Test results reported in PMC11359809, “Probing the molecular basis for signal transduction through the Zinc-Activated Channel (ZAC)” (Biochemical pharmacology, 2021).
“And” between values parts separate entries of the source, which are not always exact repeats. Equal values may be shown once.

Legend:
hα1-Gly/ZAC = experiment: TEVC in oocytes expressing hα1-Gly/ZAC chimera; type: cell-based, human; details: 10 mM Zn^2+; outward current; n = 5
Experimental: (§1) The recordings were performed at room temperature.
(§2) Analysis of the data from the TEVC recordings were performed using Clampfit software version 10.5 (Molecular Devices, Crawley, UK) and GraphPad Prism version 7.0c (GraphPad Software, La Jolla, CA). Unless otherwise stated, the inward currents induced by agonists in oocytes were normalized to the maximal response elicited by a specific agonist (agonist Imax) on each oocyte. Concentration-response and concentration-inhibition curves were fitted in GraphPad Prism by nonlinear regression using the equation for sigmoidal dose-response with variable slope. Each data point represents the mean ± S.E.M. value of recordings performed on at least five oocytes in total from at least two different batches. For the data where statistical analysis was performed, a one-way ANOVA was used. The null hypothesis was rejected at P < 0.05, and the differences between the means were analyzed by Tukey’s multiple comparisons test.
Initially, we constructed four chimeric subunits fusing the ZAC ECD or TMD-ICD with the complementary domains from either the m5-HT3A or the hα1 GlyR subunit: ZAC/m5-HT3A, m5-HT3A/ZAC, ZAC/hα1-Gly and hα1-Gly/ZAC (Fig. 1A). […] (Fig. 1A).

ZAC^D105A/D108A = biological target: T1, ZAC^D105A/D108A (Homo sapiens, UniProt Q401N2, A152T/D129A/D132A); experiment: TEVC in oocytes, ZAC D105A/D108A mutant; type: cell-based; details: 10 mM Zn^2+; data not shown
T1 construct: expressed in transfected cells; host or cells: Xenopus oocytes injected with cRNA (pUNIV vector)
T1 sequence (Q401N2 26-412 D129A/D132A/A152T): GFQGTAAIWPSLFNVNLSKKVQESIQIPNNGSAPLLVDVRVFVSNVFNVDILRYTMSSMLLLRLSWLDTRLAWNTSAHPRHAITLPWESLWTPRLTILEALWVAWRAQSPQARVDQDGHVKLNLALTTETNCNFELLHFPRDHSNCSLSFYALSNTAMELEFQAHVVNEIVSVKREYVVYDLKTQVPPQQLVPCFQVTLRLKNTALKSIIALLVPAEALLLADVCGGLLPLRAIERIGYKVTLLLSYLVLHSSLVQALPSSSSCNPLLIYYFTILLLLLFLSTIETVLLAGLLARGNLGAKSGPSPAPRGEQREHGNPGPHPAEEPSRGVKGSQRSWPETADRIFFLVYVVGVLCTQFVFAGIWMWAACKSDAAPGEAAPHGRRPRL
Experimental: as §1
as §2, with “For the data where statistical analysis was performed, a one-way ANOVA was used.” left out
(§3) The putative involvement of candidate residues in Clusters 1, 2, 3 and 4 in Zn^2+ binding to ZAC was investigated in by an elaborate alanine mutagenesis scanning. […] The determined IpH 4.0 value was used in part as a control and in part to enable the distinction of ZAC mutants non-responsive to Zn^2+ due to elimination of their ability to bind the metal ion from those where the mutation had eliminated cell surface expression and/or disrupted overall functionality of the receptor complex. […]

ZAC^H82A/H120F = biological target: T2, ZAC^H82A/H120F (Homo sapiens, UniProt Q401N2, A152T/H106A/H144F); experiment: TEVC in oocytes, ZAC H82A/H120F mutant; type: cell-based; details: parallel recordings, same oocyte batches
T2 construct: expressed in transfected cells; host or cells: Xenopus oocytes (cRNA injection, pUNIV vector)
T2 sequence (Q401N2 26-412 H106A/H144F/A152T): as the sequence (Q401N2 26-412 D129A/D132A/A152T) above, with H81A, A104D, A107D, H119F counted along it
Experimental: as §1
as §2, with “For the data where statistical analysis was performed, a one-way ANOVA was used.” left out
as §3

ZAC^H120L = experiment: TEVC in oocytes, ZAC H120L mutant; type: cell-based, human; details: agonist
Experimental: as §1
as §2, with “For the data where statistical analysis was performed, a one-way ANOVA was used.” left out
as §3

[1] = biological target: T3, ZAC^E24A/E89A/D105A/D108A/E130A (Homo sapiens, UniProt Q401N2, A152T/D129A/D132A/E113A/E154A/E48A); experiment: TEVC in oocytes, Cluster 3 quintuple mutant; type: cell-based; details: H^+ pH 4.0; Zn^2+ 10 mM; data not shown
T3 construct: expressed in transfected cells; host or cells: Xenopus oocytes injected with cRNA (pUNIV vector)
T3 sequence (Q401N2 26-412 E48A/E113A/D129A/D132A/A152T/E154A): as the sequence (Q401N2 26-412 D129A/D132A/A152T) above, with E23A, E88A, E129A counted along it
Experimental: as §1
as §2, with “For the data where statistical analysis was performed, a one-way ANOVA was used.” left out
as §3

WT ZAC = biological target: T4, WT ZAC (Homo sapiens, UniProt Q401N2, A152T); experiment: TEVC in Xenopus oocytes expressing WT ZAC; type: cell-based
T4 construct: expressed in transfected cells; host or cells: Xenopus oocytes injected with cRNA (pUNIV vector)
T4 sequence (Q401N2 26-412 A152T): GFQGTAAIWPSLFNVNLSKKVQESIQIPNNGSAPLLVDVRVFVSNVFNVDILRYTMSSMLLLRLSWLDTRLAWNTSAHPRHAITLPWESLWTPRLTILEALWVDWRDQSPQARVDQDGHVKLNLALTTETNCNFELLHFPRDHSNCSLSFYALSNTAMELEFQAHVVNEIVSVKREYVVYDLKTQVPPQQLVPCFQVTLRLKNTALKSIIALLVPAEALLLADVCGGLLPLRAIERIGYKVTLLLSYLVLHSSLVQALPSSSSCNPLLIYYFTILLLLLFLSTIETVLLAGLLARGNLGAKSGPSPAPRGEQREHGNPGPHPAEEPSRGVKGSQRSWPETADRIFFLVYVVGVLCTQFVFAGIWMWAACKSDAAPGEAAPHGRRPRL
Experimental: as §1, §2

ZAC^D116A/DH8A/H210A = biological target: T5, ZAC^D116A/DH8A/H210A (Homo sapiens, UniProt Q401N2, A152T/D140A/D142A/H144A); experiment: TEVC in oocytes, Cluster 1 triple mutant; type: cell-based; details: 10 mM Zn^2+
T5 construct: expressed in transfected cells; host or cells: Xenopus oocytes injected with cRNA (pUNIV vector)
T5 sequence (Q401N2 26-412 D140A/D142A/H144A/A152T): as the sequence (Q401N2 26-412 D129A/D132A/A152T) above, with A104D, A107D, D115A, D117A, H119A counted along it
Experimental: as §1
as §2, with “For the data where statistical analysis was performed, a one-way ANOVA was used.” left out
as §3

ZAC^H79A = experiment: TEVC in oocytes, ZAC H79A mutant; type: cell-based, human; details: agonist; parallel recordings
Experimental: as §1
as §2, with “For the data where statistical analysis was performed, a one-way ANOVA was used.” left out
as §3

ZAC^D105A/E130A = biological target: T6, ZAC^D105A/E130A (Homo sapiens, UniProt Q401N2, A152T/D129A/E154A); experiment: TEVC in oocytes, ZAC D105A/E130A mutant; type: cell-based; details: 10 mM Zn^2+; data not shown
T6 construct: expressed in transfected cells; host or cells: Xenopus oocytes injected with cRNA (pUNIV vector)
T6 sequence (Q401N2 26-412 D129A/A152T/E154A): as the sequence (Q401N2 26-412 D129A/D132A/A152T) above, with A107D, E129A counted along it
Experimental: as §1
as §2, with “For the data where statistical analysis was performed, a one-way ANOVA was used.” left out
as §3

ZAC/m5-HT3A-II = experiment: TEVC in oocytes expressing ZAC/m5-HT3A-II chimera; type: cell-based, mouse/human; details: Zn^2+ 10 mM; H^+ pH 4.0; data not shown
Experimental: as §1

ZAC^H120F = experiment: TEVC in oocytes, ZAC H120F mutant; type: cell-based, human; details: agonist
Experimental: as §1
as §2, with “For the data where statistical analysis was performed, a one-way ANOVA was used.” left out
as §3

ZAC^H79A/H82A/H120F = biological target: T7, ZAC^H79A/H82A/H120F (Homo sapiens, UniProt Q401N2, A152T/H103A/H106A/H144F); experiment: TEVC in oocytes, ZAC H79A/H82A/H120F mutant; type: cell-based; details: parallel recordings, same oocyte batches
T7 construct: expressed in transfected cells; host or cells: Xenopus oocytes (cRNA injection, pUNIV vector)
T7 sequence (Q401N2 26-412 H103A/H106A/H144F/A152T): as the sequence (Q401N2 26-412 D129A/D132A/A152T) above, with H78A, H81A, A104D, A107D, H119F counted along it
Experimental: as §1
as §2, with “For the data where statistical analysis was performed, a one-way ANOVA was used.” left out
as §3

ZAC^H79A/H120F = biological target: T8, ZAC^H79A/H120F (Homo sapiens, UniProt Q401N2, A152T/H103A/H144F); experiment: TEVC in oocytes, ZAC H79A/H120F mutant; type: cell-based; details: parallel recordings, same oocyte batches
T8 construct: expressed in transfected cells; host or cells: Xenopus oocytes (cRNA injection, pUNIV vector)
T8 sequence (Q401N2 26-412 H103A/H144F/A152T): as the sequence (Q401N2 26-412 D129A/D132A/A152T) above, with H78A, A104D, A107D, H119F counted along it
Experimental: as §1
as §2, with “For the data where statistical analysis was performed, a one-way ANOVA was used.” left out
as §3

ZAC^E24A = biological target: T9, ZAC^E24A (Homo sapiens, UniProt Q401N2, A152T/E48A); experiment: TEVC in oocytes, ZAC E24A mutant; type: cell-based; details: agonist; n = 5
T9 construct: expressed in transfected cells; host or cells: Xenopus oocytes injected with cRNA (pUNIV vector)
T9 sequence (Q401N2 26-412 E48A/A152T): as the sequence (Q401N2 26-412 D129A/D132A/A152T) above, with E23A, A104D, A107D counted along it
Experimental: as §1
as §2, with “For the data where statistical analysis was performed, a one-way ANOVA was used.” left out
as §3

ZAC^E130A = biological target: T10, ZAC^E130A (Homo sapiens, UniProt Q401N2, A152T/E154A); experiment: TEVC in oocytes, ZAC E130A mutant; type: cell-based
T10 construct: expressed in transfected cells; host or cells: Xenopus oocytes (cRNA injection, pUNIV vector)
T10 sequence (Q401N2 26-412 A152T/E154A): as the sequence (Q401N2 26-412 D129A/D132A/A152T) above, with A104D, A107D, E129A counted along it
Experimental: as §1
as §2, with “For the data where statistical analysis was performed, a one-way ANOVA was used.” left out
as §3

[2] = agonist, oocytes of the Cluster 3 recordings, n = 12
[3] = agonist, parallel recordings with Cluster 4 mutant, n = 5
[4] = agonist, section 3.1 recordings, n = 8
[5] = sustained (4 min) application of 10 mM Zn^2+

[Cl-].[Cl-].[Zn+2] [Zn^2+, ZnCl2]
I10 mM Zn2+ ± S.E.M. (hα1-Gly/ZAC): 0.0298 ± 0.0058 μA | agonist responsiveness (ZAC^D105A/D108A): non-responsive | ability to elicit ZAC signalling compared to WT ZAC (ZAC^H82A/H120F): did not appear to impair | fitted EC50 relative to WT ZAC (higher) (ZAC^H120L): ~ 3 fold | agonist responsiveness [1]: non-responsive | Imax (current amplitude evoked by saturating agonist) (WT ZAC; 10 mM Zn^2+, mean ± S.E.M., n = 19): 0.58 ± 0.10 μA | EC50 (WT ZAC; agonist, a couple of oocyte batches with 5–10-fold higher potency (Cluster 1 double/triple mutant experiments)): ~100 µM | nH ± S.E.M. (Hill slope) (WT ZAC; agonist, n = 8): 1.5 ± 0.2 | EC50 (WT ZAC; agonist, normal potency in the vast majority of oocyte batches in this work and in two other studies): 500 to 1000 µM | EC50 (WT ZAC; [2]): 98 µM | pEC50 ± S.E.M. (WT ZAC; [2]): 4.01 ± 0.03 | EC50 (WT ZAC; [3]): 310 µM | pEC50 ± S.E.M. (WT ZAC; [3]): 3.51 ± 0.05 | EC50 (WT ZAC; [4]): 500 µM | pEC50 ± S.E.M. (WT ZAC; [4]): 3.30 ± 0.04 | Iresidual, 4 min (WT ZAC; [5]): 21 % of Ipeak and 21 ± 3 % of Ipeak | Δtstart-to-peak (WT ZAC; [5]): 4.8 ± 0.5 s | I10 mM Zn2+ range (ZAC^D116A/DH8A/H210A): 10–30 nA | fitted EC50 relative to WT ZAC (higher) (ZAC^H79A): 2.4 fold | agonist responsiveness (ZAC^D105A/E130A): non-responsive | agonist-evoked current (ZAC/m5-HT3A-II): did not evoke significant currents | fitted EC50 relative to WT ZAC (higher) (ZAC^H120F): ~ 3 fold | ability to elicit ZAC signalling compared to WT ZAC (ZAC^H79A/H82A/H120F): did not appear to impair | ability to elicit ZAC signalling compared to WT ZAC (ZAC^H79A/H120F): did not appear to impair | EC50 (ZAC^E24A): 71 µM | pEC50 ± S.E.M. (ZAC^E24A): 4.15 ± 0.04 | concentration-response relationship compared to WT ZAC (ZAC^E130A): did not differ significantly
